Source: USRE38506E1, “Potent inducers of terminal differentiation and methods of use thereof” (Sloan-Kettering Institute for Cancer Research, priority 1991, dated 2004)

Test system: MELC 745A-DS19 cells
Assay: Induction of terminal differentiation of murine erythroleukemia cells (benzidine reactivity)
Type: cell-based
Details: for Optimal Conc.: Table 1; for Benzidine Reactive Cells: at optimal concentration
Protocol: MELC 745A-DS19 cells and the variants of MELC derived from this cell line, namely, the vincristine-resistant MELC V3.17 and VCR.C(2)15 cell lines (26), and the dimethylsulfoxide-resistant cell line, DR10 (39), were maintained in alpha minimal essential medium containing 10% fetal calf serum (16). Cell cultures for all experiments were initiated with cells in logarithmic growth phase (day 2 cultured cells) at a density of 10^5 cells/ml. Inducer compounds were added in the final concentrations indicated below, dissolved in culture medium without fetal calf serum unless otherwise indicated. Cell density and benzidine reactively were determined as described (16).
Commitment to terminal differentiation, characterized by limited cell division (colony size<32 cells) and accumulation of hemoglobin (benzidine reactive colonies) was assayed by a colony cloning assay using 2% methylcellulose as described (25) (see Table 1 for results). HL-60 human leukemia cells, derived from peripheral blood leukocytes of a patient with acute promyelocytic leukemia (40). Induced differentiation of HL-60 cells assayed by determining the proportion of cells that developed the capacity to reduce nitroblue tetrazolium (NBT) (41) (see Table 2 for results).

SMILES | Optimal Conc. | Benzidine Reactive Cells
O=C(CCCCCCC(=O)Nc1c(F)ccc(F)c1F)Nc1c(F)ccc(F)c1F [compound 62] | 250 µM | 28%
O=C(CCC(F)(F)CCC(=O)NO)NO [compound 70] | – | 19%
O=C(CCCCCCC(=O)Nc1cccc([N+](=O)[O-])c1)NO [compound 24] | 5 µM | 30%
COc1cccc(NC(=O)CCCCCCC(=O)NO)c1 [compound 52] | 6 µM | 38%
O=C(CCCCCCC(=O)Nc1ccc(F)cc1)NO [compound 34] | 4 µM | 43%
CN(C)C(=O)CCCCCCC(=O)NO [compound 11] | – | 53%
O=C(CCCCCC(CCCCCC(=O)NO)C(=O)NO)NO [compound 69] | – | 40%
O=C(CCCCCCC(=O)Nc1ccc(F)cc1F)NO [compound 45] | 6 µM | 60%
O=C(O)CCCCCCC(=O)NO [compound 12] | – | 35%
O=C(CCCCCCC(=O)Nc1cc(F)c(F)cc1F)NO [compound 42] | 8 µM | 36%
CC(CCCCCC(C)C(=O)N(C)C)C(=O)N(C)C (stereo not drawn) [compound 66] | – | 80%
O=C(O)CCCCCCC(=O)NC1CCCCC1 [compound 9] | – | 20%
CN(C(=O)CCCCCCC(=O)NO)c1ccccc1 [compound 54] | – | 40%
O=C(NO)c1ccc(C(=O)Nc2ccccc2)cc1 [compound 55] | – | 53%
O=C(CCCCCCC(=O)Nc1cccc(F)c1)NO [compound 33] | 1 µM | 25%
O=C(CCCCCCC(=O)Nc1ccc(OCc2ccccc2)cc1)NO [compound 35] | 4 µM | 20%
O=C(CCCCCCC(=O)Nc1cccc(Cl)c1)NO [compound 30] | 2 µM | 33%
O=C(O)CCCCCCC(=O)Nc1ccc(OCc2ccccc2)cc1 [compound 10] | 250 µM | 26%
O=C(CCCCCCC(=O)Nc1ccccc1F)NO [compound 32] | 4 µM | 65%
N#CCc1ccc(NC(=O)CCCCCCC(=O)Nc2ccc(CC#N)cc2)cc1 [compound 58] | 50 µM | 25%
CONC(=O)CCCCCCC(=O)NO [compound 15] | – | 43%
O=C(CCCCCCCC(=O)Nc1ccccc1)NO [compound 4] | 20 µM | 8%
COc1ccc(NC(=O)CCCCCCC(=O)NO)cc1 [compound 53] | 6 µM | 37%
O=C(CCCCCCC(=O)Nc1ccccc1Br)NO [compound 38] | 8 µM | 45%
O=C(CCCCCCC(=O)Nc1cccc(F)c1F)NO [compound 41] | 8 µM | 24%
O=C(CCCCCCC(=O)Nc1c(F)cc(F)cc1F)NO [compound 44] | 16 µM | 47%
O=C(CCCCCCC(=O)Nc1ccc([N+](=O)[O-])cc1)Nc1ccc([N+](=O)[O-])cc1 [compound 65] | 25 µM | 14%
